Test results from US20240317777A1, “NOVEL MACROCYCLIC AMINOPYRAZOLE COMPOUNDS AS CDK2 INHIBITORS” (Accutar Biotechnology Inc., priority 2023, published 2024).
pIC50: −log10 of the molar value. Where two headings read alike, the source gives them in different places.

Legend:
[1] = biological target: CDK1-CYCLIN B (Homo sapiens, UniProt P06493); test: CDK protein kinase inhibition by ADP-Glo assay, CDK1-CYCLIN B; assay type: biochemical; conditions: for pIC50: read-out: CDK1-CYCLINB, IC50; for CDK2 Fold selectivity, CDK1: CDK2 versus CDK1
Chain of CDK1-CYCLIN B (P06493 whole entry): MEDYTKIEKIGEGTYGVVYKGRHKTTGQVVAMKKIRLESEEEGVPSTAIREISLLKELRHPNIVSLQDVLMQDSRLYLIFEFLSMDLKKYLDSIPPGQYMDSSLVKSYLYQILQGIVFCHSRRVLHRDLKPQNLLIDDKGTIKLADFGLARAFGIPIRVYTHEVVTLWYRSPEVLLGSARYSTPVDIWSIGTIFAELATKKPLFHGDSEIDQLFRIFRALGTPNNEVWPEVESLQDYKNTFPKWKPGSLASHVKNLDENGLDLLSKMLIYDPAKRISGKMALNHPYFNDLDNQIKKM
Chain of CDK1-CYCLIN B (P14635 whole entry partner): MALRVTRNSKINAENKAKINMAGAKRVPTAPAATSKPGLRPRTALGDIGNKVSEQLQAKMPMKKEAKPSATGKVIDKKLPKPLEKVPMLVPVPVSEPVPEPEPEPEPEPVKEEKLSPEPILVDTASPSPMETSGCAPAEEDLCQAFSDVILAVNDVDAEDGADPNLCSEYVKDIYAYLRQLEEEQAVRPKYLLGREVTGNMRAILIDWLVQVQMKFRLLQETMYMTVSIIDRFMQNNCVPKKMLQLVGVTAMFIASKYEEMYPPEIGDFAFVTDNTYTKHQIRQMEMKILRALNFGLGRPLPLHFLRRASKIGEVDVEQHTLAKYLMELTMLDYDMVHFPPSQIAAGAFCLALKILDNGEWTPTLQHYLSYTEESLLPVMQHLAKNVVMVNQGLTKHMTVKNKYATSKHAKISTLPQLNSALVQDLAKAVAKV
Outline: (§1)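 Compounds were incubated at 22° C with the CDK/cyclin complex, peptide substrate, 1000 μM ATP and 5 mM MgCl2. The reaction was then quenched and ADP formation quantified by luminescence using ADP-Glo reagents.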

[2] = biological target: CDK4-CYCLIN D1 (Homo sapiens, UniProt P11802); test: CDK protein kinase inhibition by ADP-Glo assay, CDK4-CYCLIN D1; assay type: biochemical; conditions: for pIC50: read-out: CDK4-CYCLIND1, IC50; for CDK2 Fold selectivity, CDK4: CDK2 versus CDK4
Chain of CDK4-CYCLIN D1 (P11802 whole entry): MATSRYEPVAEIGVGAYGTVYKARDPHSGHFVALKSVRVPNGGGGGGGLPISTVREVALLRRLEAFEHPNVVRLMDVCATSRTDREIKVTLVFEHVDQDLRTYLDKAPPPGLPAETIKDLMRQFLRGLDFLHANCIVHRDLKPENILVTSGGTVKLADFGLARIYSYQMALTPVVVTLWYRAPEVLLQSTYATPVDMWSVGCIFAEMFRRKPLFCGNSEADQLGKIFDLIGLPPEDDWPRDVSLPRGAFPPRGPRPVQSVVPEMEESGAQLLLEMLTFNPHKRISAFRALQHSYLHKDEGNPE
Chain of CDK4-CYCLIN D1 (P24385 whole entry partner): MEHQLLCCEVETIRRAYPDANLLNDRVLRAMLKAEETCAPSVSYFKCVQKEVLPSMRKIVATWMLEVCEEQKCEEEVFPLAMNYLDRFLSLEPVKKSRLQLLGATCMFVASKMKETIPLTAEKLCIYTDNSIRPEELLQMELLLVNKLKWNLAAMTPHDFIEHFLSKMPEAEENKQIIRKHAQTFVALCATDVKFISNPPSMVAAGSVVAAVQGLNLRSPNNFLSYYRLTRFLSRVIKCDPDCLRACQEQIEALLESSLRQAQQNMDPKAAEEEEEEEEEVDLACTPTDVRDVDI
Outline: as §1

[3] = biological target: CDK6-CYCLIN D3 (Homo sapiens, UniProt Q00534); test: CDK protein kinase inhibition by ADP-Glo assay, CDK6-CYCLIN D3; assay type: biochemical; conditions: for pIC50: read-out: CDK6-CYCLIND3, IC50; for CDK2 Fold selectivity, CDK6: CDK2 versus CDK6
Chain of CDK6-CYCLIN D3 (Q00534 whole entry): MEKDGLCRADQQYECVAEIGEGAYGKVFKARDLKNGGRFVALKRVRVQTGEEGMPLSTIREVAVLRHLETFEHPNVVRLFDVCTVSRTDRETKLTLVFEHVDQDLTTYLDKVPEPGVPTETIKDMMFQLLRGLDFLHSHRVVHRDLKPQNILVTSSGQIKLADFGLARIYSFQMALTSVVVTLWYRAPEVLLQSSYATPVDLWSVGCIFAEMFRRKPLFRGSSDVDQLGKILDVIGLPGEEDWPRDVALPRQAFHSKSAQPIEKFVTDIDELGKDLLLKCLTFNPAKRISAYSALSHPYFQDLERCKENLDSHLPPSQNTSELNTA
Chain of CDK6-CYCLIN D3 (P30281 whole entry partner): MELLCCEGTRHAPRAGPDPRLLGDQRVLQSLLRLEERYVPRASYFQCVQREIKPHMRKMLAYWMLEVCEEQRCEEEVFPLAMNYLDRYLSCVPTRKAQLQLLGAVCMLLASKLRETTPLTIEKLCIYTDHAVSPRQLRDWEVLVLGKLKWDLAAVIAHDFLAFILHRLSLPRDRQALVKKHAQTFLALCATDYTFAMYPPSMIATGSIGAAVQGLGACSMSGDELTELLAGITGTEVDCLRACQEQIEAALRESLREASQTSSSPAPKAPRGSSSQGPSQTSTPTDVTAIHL
Outline: as §1

[4] = system: CCNE1-normal SKOV3 cells; test: Cell growth inhibition of CCNE1-normal SKOV3 cells (CellTiter-Glo); assay type: cell-based; conditions: Homo sapiens, SK-OV-3, 144 h, 6 days
Outline: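 Growth was measured by CellTiter-Glo luminescence after 6 days' compound exposure at 37 °C. Cells were plated one day before dosing at 1000 per well in medium with 10% FBS, and compounds were diluted from DMSO stocks.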

[5] = system: CCNE1-amplified OVCAR3 cells; test: Cell growth inhibition of CCNE1-amplified OVCAR3 cells (CellTiter-Glo); assay type: cell-based; conditions: Homo sapiens, OVCAR-3, 144 h, 6 days
Outline: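 Growth read-out was CellTiter-Glo luminescence, taken after 10 min at room temperature at the end of a 6-day compound exposure at 37 °C. Compounds were diluted from DMSO stocks across various concentrations.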

[6] = biological target: CDK2-CYCLIN E1 (Homo sapiens, UniProt P24941); test: CDK protein kinase inhibition by ADP-Glo assay, CDK2-CYCLIN E1; assay type: biochemical; conditions: read-out: CDK2-CYCLINE, IC50
Outline: as §1

[7] = biological target: CDK9-CYCLIN T1 (Homo sapiens, UniProt P50750); test: CDK protein kinase inhibition by ADP-Glo assay, CDK9-CYCLIN T1; assay type: biochemical; conditions: for pIC50: read-out: CDK9-CYCLINT1, IC50; for CDK2 Fold selectivity, CDK9: CDK2 versus CDK9
Chain of CDK9-CYCLIN T1 (P50750 whole entry): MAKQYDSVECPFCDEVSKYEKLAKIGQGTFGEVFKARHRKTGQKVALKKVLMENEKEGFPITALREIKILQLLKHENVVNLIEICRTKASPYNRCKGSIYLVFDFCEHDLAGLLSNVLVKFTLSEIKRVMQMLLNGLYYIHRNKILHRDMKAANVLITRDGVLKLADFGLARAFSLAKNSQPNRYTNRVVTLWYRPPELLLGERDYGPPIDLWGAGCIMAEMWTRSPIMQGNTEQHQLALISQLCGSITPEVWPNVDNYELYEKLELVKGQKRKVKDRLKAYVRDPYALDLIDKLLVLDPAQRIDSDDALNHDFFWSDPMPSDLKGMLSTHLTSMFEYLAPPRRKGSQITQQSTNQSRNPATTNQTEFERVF
Chain of CDK9-CYCLIN T1 (O60563 whole entry partner): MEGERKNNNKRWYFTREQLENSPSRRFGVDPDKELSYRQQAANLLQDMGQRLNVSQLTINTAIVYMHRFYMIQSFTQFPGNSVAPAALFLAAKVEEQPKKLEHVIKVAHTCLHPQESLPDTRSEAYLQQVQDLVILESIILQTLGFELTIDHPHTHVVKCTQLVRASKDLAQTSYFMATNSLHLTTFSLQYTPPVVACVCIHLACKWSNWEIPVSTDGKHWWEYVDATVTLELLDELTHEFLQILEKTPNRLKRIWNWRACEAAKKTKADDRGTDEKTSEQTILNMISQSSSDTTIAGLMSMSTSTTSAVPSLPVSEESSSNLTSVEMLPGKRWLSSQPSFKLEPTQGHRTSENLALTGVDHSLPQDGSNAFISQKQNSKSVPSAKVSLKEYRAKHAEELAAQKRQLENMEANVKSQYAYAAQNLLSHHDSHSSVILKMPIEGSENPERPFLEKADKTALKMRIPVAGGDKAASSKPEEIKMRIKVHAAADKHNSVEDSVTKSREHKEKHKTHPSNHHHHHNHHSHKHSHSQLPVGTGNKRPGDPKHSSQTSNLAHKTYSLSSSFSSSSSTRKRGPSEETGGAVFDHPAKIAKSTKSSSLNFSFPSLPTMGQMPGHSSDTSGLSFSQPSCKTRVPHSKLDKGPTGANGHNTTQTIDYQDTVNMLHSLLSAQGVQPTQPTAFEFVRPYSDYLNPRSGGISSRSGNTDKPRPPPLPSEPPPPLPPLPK
Outline: as §1

[8] = system: Phospho-Rb (Ser807/811) in OVCAR3 cells; test: Phospho-Rb expression inhibition in OVCAR3 cells quantified by In Cell Western; assay type: cell-based; conditions: Homo sapiens, OVCAR-3, 24 hours, read-out: OVCAR-3 pRb IC50
Outline: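 In-cell western: after 24 h compound exposure at 37° C, fixed OVCAR3 cells co-stained for pRb Ser807/811 (800 nm channel) and total Rb (680 nm channel), imaged by LI-COR Odyssey.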

[9] = Table 35, recombinant CDK kinase

| SMILES | pIC50 ([1]; ADP-Glo, 1000 μM ATP, Table 11) | CDK2 Fold selectivity, CDK1 ([1]; Table 12) | pIC50 ([2]; ADP-Glo, 1000 μM ATP, Table 11) | CDK2 Fold selectivity, CDK4 ([2]; Table 12) | pIC50 ([3]; ADP-Glo, 1000 μM ATP, Table 11) | CDK2 Fold selectivity, CDK6 ([3]; Table 12) | pIC50 [5] | pIC50 ([6]; ADP-Glo, 1000 μM ATP, Table 11) | pIC50 ([7]; ADP-Glo, 1000 μM ATP, Table 11) | CDK2 Fold selectivity, CDK9 ([7]; Table 12) | pIC50 [8] | pIC50 ([1]; ADP-Glo, 1000 μM ATP, Table 19) | CDK2 Fold selectivity, CDK1 ([1]; Table 20) | pIC50 ([2]; ADP-Glo, 1000 μM ATP, Table 19) | CDK2 Fold selectivity, CDK4 ([2]; Table 20) | pIC50 ([3]; ADP-Glo, 1000 μM ATP, Table 19) | CDK2 Fold selectivity, CDK6 ([3]; Table 20) | pIC50 ([6]; ADP-Glo, 1000 μM ATP, Table 19) | pIC50 ([7]; ADP-Glo, 1000 μM ATP, Table 19) | pIC50 [4] | also measured |
| --- | --- | --- | --- | --- | --- | --- | --- | --- | --- | --- | --- | --- | --- | --- | --- | --- | --- | --- | --- | --- | --- |
| C[C@H]1CCCCc2cc(ccn2)Nc2cc(n[nH]2)[C@H]2CC[C@H](C2)OC(=O)N1 [Compound 114, (1^1S,1^3R,9S,Z)-9-methyl-2^1H-12-oxa-3,10-diaza-4(4,2)-pyridina-2(3,5)-pyrazola-1(1,3)-cyclopentanacyclododecaphan-11-one] | – | – | – | – | – | – | 7.30 to 8.00 | – | – | – | 7.30 to 8.00 | 6.30 to 7.00 | E (E, <20) | 7.00 to 7.30 | E (E, <20) | 6.30 to 7.00 | E (E, <20) | ≥ 8.00 | 6.30 to 7.00 | 5.90 to 6.60 | CDK2 Fold selectivity, CDK9 ([7]; Table 20): D (D, >20 and ≤50) |
| C[C@@H]1CCCCc2cc(ccn2)Nc2cc(n[nH]2)[C@H]2CC[C@H](C2)OC(=O)N1 [Compound 115, (1^1S,1^3R,9R,Z)-9-methyl-2^1H-12-oxa-3,10-diaza-4(4,2)-pyridina-2(3,5)-pyrazola-1(1,3)-cyclopentanacyclododecaphan-11-one] | – | – | – | – | – | – | 7.30 to 8.00 | – | – | – | 7.30 to 8.00 | 7.00 to 7.30 | E (E, <20) | 7.30 to 8.00 | E (E, <20) | 7.30 to 8.00 | E (E, <20) | 7.30 to 8.00 | 6.30 to 7.00 | 5.90 to 6.60 | CDK2 Fold selectivity, CDK9 ([7]; Table 20): E (E, <20) |
| O=C1NC2(CCCCc3cc(ccn3)Nc3cc(n[nH]3)[C@H]3CC[C@H](C3)O1)CC2 [Compound 116, (1′S,3′R,Z)-spiro[cyclopropane-1,9′-12-oxa-3,10-diaza-4(4,2)-pyridina-2(3,5)-pyrazola-1(1,3)-cyclopentanacyclododecaphan]-11′-one] | – | – | – | – | – | – | 7.30 to 8.00 | – | – | – | 7.30 to 8.00 | – | – | – | – | – | – | – | – | 5.90 to 6.60 | pIC50 ([1]; ADP-Glo, 1000 μM ATP, Table 17): 7.00 to 7.30; CDK2 Fold selectivity, CDK1 ([1]; Table 18): D (D, >20 and ≤50); pIC50 ([2]; ADP-Glo, 1000 μM ATP, Table 17): 7.30 to 8.00; CDK2 Fold selectivity, CDK4 ([2]; Table 18): E (E, <20); pIC50 ([3]; ADP-Glo, 1000 μM ATP, Table 17): 7.30 to 8.00; CDK2 Fold selectivity, CDK6 ([3]; Table 18): E (E, <20); pIC50 ([6]; ADP-Glo, 1000 μM ATP, Table 17): ≥ 8.00; pIC50 ([7]; ADP-Glo, 1000 μM ATP, Table 17): 7.00 to 7.30; CDK2 Fold selectivity, CDK9 ([7]; Table 18): D (D, >20 and ≤50) |
| C[C@H]1CCCOc2cncc(c2)Nc2cc(n[nH]2)[C@H]2CC[C@H](C2)OC(=O)N1 [Compound 119, (1^1S,1^3R,9S,Z)-9-methyl-2^1H-5,12-dioxa-3,10-diaza-4(3,5)-pyridina-2(3,5)-pyrazola-1(1,3)-cyclopentanacyclododecaphan-11-one] | – | – | – | – | – | – | 7.30 to 8.00 | – | – | – | 8.00 to 8.70 | – | – | – | – | – | – | – | – | < 5.90 | pIC50 ([1]; ADP-Glo, 1000 μM ATP, Table 13): 7.30 to 8.00; CDK2 Fold selectivity, CDK1 ([1]; Table 14): D (D, >20 and ≤50); pIC50 ([2]; ADP-Glo, 1000 μM ATP, Table 13): 6.30 to 7.00; CDK2 Fold selectivity, CDK4 ([2]; Table 14): C (C, >50 and ≤100); pIC50 ([3]; ADP-Glo, 1000 μM ATP, Table 13): 7.30 to 8.00; CDK2 Fold selectivity, CDK6 ([3]; Table 14): E (E, <20); pIC50 ([6]; ADP-Glo, 1000 μM ATP, Table 13): ≥ 8.00; pIC50 ([7]; ADP-Glo, 1000 μM ATP, Table 13): 6.30 to 7.00; CDK2 Fold selectivity, CDK9 ([7]; Table 14): C (C, >50 and ≤100) |

Now from value to molecule, other results behind:

| pIC50 ([1]; ADP-Glo, 1000 μM ATP, Table 11) | CDK2 Fold selectivity, CDK1 ([1]; Table 12) | pIC50 ([2]; ADP-Glo, 1000 μM ATP, Table 11) | CDK2 Fold selectivity, CDK4 ([2]; Table 12) | pIC50 ([3]; ADP-Glo, 1000 μM ATP, Table 11) | CDK2 Fold selectivity, CDK6 ([3]; Table 12) | pIC50 [5] | pIC50 ([6]; ADP-Glo, 1000 μM ATP, Table 11) | pIC50 ([7]; ADP-Glo, 1000 μM ATP, Table 11) | CDK2 Fold selectivity, CDK9 ([7]; Table 12) | pIC50 [8] | pIC50 ([1]; ADP-Glo, 1000 μM ATP, Table 19) | CDK2 Fold selectivity, CDK1 ([1]; Table 20) | pIC50 ([2]; ADP-Glo, 1000 μM ATP, Table 19) | CDK2 Fold selectivity, CDK4 ([2]; Table 20) | pIC50 ([3]; ADP-Glo, 1000 μM ATP, Table 19) | CDK2 Fold selectivity, CDK6 ([3]; Table 20) | pIC50 ([6]; ADP-Glo, 1000 μM ATP, Table 19) | pIC50 ([7]; ADP-Glo, 1000 μM ATP, Table 19) | SMILES | pIC50 [4] | also measured |
| --- | --- | --- | --- | --- | --- | --- | --- | --- | --- | --- | --- | --- | --- | --- | --- | --- | --- | --- | --- | --- | --- |
| 7.30 to 8.00 | B (B, >100 and ≤500) | 6.30 to 7.00 | B (B, >100 and ≤500) | 6.30 to 7.00 | A (A, ≥500) | 8.00 to 8.70 | ≥ 8.00 | 6.30 to 7.00 | A (A, ≥500) | 8.00 to 8.70 | – | – | – | – | – | – | – | – | O=C1N[C@H]2C[C@H](COc3cc(ccn3)Nc3cc(n[nH]3)[C@H]3CC[C@H](C3)O1)C2 [Compound 108, (1^1S,1^3R,7^1R,7^3S,Z)-2^1H-5,10-dioxa-3,8-diaza-4(4,2)-pyridina-2(3,5)-pyrazola-1(1,3)-cyclopentana-7(1,3)-cyclobutanacyclodecaphan-9-one] | 5.90 to 6.60 | pIC50 [1, 9]: 7.30 to 8.00; CDK2 Fold selectivity against CDK1 ([1]; Table 36, fold selectivity for CDK2 over CDK1, recombinant CDK kinases): E (E, <20); pIC50 [2, 9]: 7.30 to 8.00; CDK2 Fold selectivity against CDK4 ([2]; Table 36, fold selectivity for CDK2 over CDK4, recombinant CDK kinases): E (E, <20); pIC50 [3, 9]: 7.00 to 7.30; CDK2 Fold selectivity against CDK6 ([3]; Table 36, fold selectivity for CDK2 over CDK6, recombinant CDK kinases): D (D, >20 and ≤50); pIC50 [6, 9]: ≥ 8.00; pIC50 [7, 9]: 7.00 to 7.30; CDK2 Fold selectivity against CDK9 ([7]; Table 36, fold selectivity for CDK2 over CDK9, recombinant CDK kinases): D (D, >20 and ≤50) |
| ≥ 8.00 | E (E, <20) | 7.30 to 8.00 | E (E, <20) | 7.30 to 8.00 | E (E, <20) | ≥ 8.70 | ≥ 8.00 | 7.30 to 8.00 | D (D, >20 and ≤50) | ≥ 8.70 | – | – | – | – | – | – | – | – | O=C1NC23CC(CCOc4cncc(c4)Nc4cc(n[nH]4)[C@H]4CC[C@H](C4)O1)(C2)C3 [Compound 117, (1^1S,1^3R,Z)-2^1H-5,11-dioxa-3,9-diaza-4(3,5)-pyridina-2(3,5)-pyrazola-8(1,3)-bicyclo[1.1.1]pentana-1(1,3)-cyclopentanacycloundecaphan-10-one] | 6.60 to 7.30 | – |
